# Test results published in US20170240513A1, “SUBSTITUTED PYRIMIDINES AS INHIBITORS OF HIF PROLYL HYDROXYLASE” (MERCK SHARP & DOHME CORP., priority 2014, published 2017).
# Target: T1, human HIF-PHD2 (Homo sapiens, UniProt Q9GZT9)
# T1 construct: FLAG-tagged full length PHD2 expressed in and purified from baculovirus-infected Sf9 cells; FLAG; made in house; host or cells: baculovirus-infected Sf9 cells
# Experiment: HIF-PHD2 inhibition of HIF-1α peptide hydroxylation (time resolved fluorescence)
# Type: biochemical
# Settings: FLAG-tagged full length PHD2; 0.2 μM 2-oxoglutarate, 0.5 μM HIF-1α peptide
# Description: Select examples of assays that may be used to detect favorable activity are disclosed in the following publications: Oehme, F., et al., Anal. Biochem. 330:74-80 (2004); Hirsilä, M, et al., J. Bio. Chem. 278 (33): 30772-30780 (2005); Hyunju, C., et al., Biochem. Biophys. Res. Comm. 330 275-280 (2005); and Hewitson, K. S., et al., Methods in Enzymology, (Oxygen Biology and Hypoxia); Elsevier Publisher (2007), pg. 25-42 (ISSN: 0076-6879).
# To each well of a 384-well plate, 1 μL of test compounds in DMSO (final concentration ranging from 0.3 nM to 10 uM) were added into 20 μl of assay buffer (50 mM Tris pH 7.4/0.01% Tween-20/0.1 mg/ml bovine serum albumin/[…]/1 mM sodium ascorbate/20 μg/ml catalase) containing 0.15 μg/ml FLAG-tagged full length PHD2 expressed in and purified from baculovirus-infected Sf9 cells. After a 5 min preincubation at room temperature, the enzymatic reactions were initiated by the addition of 4 μL of substrates {final concentrations of 0.2 μM 2-oxoglutarate and 0.5 μM HIF-1α peptide biotinyl-DLDLEMLAPYIPMDDDFQL (SEQ ID NO: 1)}. After incubation for 45 minutes at room temperature, the reactions were terminated by the addition of a 25 μL quench/detection mix to a final concentration of 1 mM ortho-phenanthroline, 0.1 mM EDTA, 0.5 nM anti-(His)6 LANCE reagent (Perkin-Elmer Life Sciences), 100 nM AF647-labeled streptavidin (Invitrogen), and 2 μg/ml (His)6-VHL complex {S. Tan Protein Expr. Purif. 21, 224-234 (2001)} and the signals were developed for 30 minutes at room temperature. The ratio of time resolved fluorescence signals at 665 and 620 nm was determined, and percent inhibition was calculated relative to the high control samples (DMSO treated) run in parallel, after background subtraction.
# T1 sequence (Q9GZT9 whole entry): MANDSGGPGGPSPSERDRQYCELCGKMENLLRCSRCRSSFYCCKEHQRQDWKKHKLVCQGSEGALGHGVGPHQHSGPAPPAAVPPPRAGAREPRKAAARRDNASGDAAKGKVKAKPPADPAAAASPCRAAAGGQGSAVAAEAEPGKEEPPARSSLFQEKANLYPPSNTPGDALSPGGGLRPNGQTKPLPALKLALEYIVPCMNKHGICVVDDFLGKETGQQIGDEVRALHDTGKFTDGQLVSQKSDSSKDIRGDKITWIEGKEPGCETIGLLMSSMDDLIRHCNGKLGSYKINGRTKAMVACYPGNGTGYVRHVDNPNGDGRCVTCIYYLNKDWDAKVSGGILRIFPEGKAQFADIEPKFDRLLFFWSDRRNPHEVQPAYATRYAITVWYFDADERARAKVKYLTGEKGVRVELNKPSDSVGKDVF
row,IC50,Structure (SMILES)
1,179 nM,"CC(C)OC(=O)COC(=O)C(C)CNC(=O)c1ncc(C(=O)NC(c2ccccc2)c2ccccc2)c(O)n1 (single isomer, unassigned) [Ex. 30, 2-Isopropoxy-2-oxoethyl 3-(5-(benzhydrylcarbamoyl)-4-hydroxypyrimidine-2-carboxamido)-2-methylpropanoate]"
2,940 nM,"CCOC(=O)C(C)(O)CNC(=O)c1ncc(C(=O)NC(c2ccccc2)c2ccccc2)c(O)n1 (single isomer, unassigned) [Example 26, Ethyl 3-(5-(benzhydrylcarbamoyl)-4-hydroxypyrimidine-2-carboxamido)-2-hydroxy-2-methylpropanoate]"
3,879 nM,"CCOC(=O)C(C)(O)CNC(=O)c1ncc(C(=O)NC(c2ccccc2)c2ccccc2)c(O)n1 (single isomer, unassigned) [Example 27, Ethyl 3-(5-(benzhydrylcarbamoyl)-4-hydroxypyrimidine-2-carboxamido)-2-hydroxy-2-methylpropanoate]"
4,14.3 nM,"COC(=O)CCNC(=O)c1ncc(C(=O)NC(c2ccccc2)c2ccccc2)c(O)n1 [Ex. 1, Methyl 3-(5-(benzhydrylcarbamoyl)-4-hydroxypyrimidine-2-carboxamido)propanoate]"
5,24.9 nM,"O=C(CCNC(=O)c1ncc(C(=O)NC(c2ccccc2)c2ccccc2)c(O)n1)OCCN1CCOCC1 [Ex. 2, 2-morpholinoethyl 3-(5-(benzhydrylcarbamoyl)-4-hydroxypyrimidine-2-carboxamido)propanoate]"
6,35.6 nM,"CCOC(=O)C1(CNC(=O)c2ncc(C(=O)NC(c3ccccc3)c3ccccc3)c(O)n2)CC1 [Ex. 3, ethyl 1-((5-(benzhydrylcarbamoyl)-4-hydroxypyrimidine-2-carboxamido)methyl)cyclopropanecarboxylate]"
7,871 nM,"CCOC(=O)C(C)(O)CNC(=O)c1ncc(C(=O)NC(c2ccccc2)c2ccccc2)c(O)n1 (stereo not drawn) [Ex. 4, ethyl 3-(5-(benzhydrylcarbamoyl)-4-hydroxypyrimidine-2-carboxamido)-2-hydroxy-2-methylpropanoate]"
8,46.4 nM,"CCOC(=O)[C@H](O)CNC(=O)c1ncc(C(=O)NC(c2ccccc2)c2ccccc2)c(O)n1 [Ex. 5, (R)-ethyl 3-(5-(benzhydrylcarbamoyl)-4-hydroxypyrimidine-2-carboxamido)-2-hydroxypropanoate]"
9,2.81 nM,"CC(C)OC(=O)OCOC(=O)CCNC(=O)c1ncc(C(=O)NC(c2ccccc2)c2ccccc2)c(O)n1 [Ex. 8, ((isopropoxycarbonyl)oxy)methyl 3-(5-(benzhydrylcarbamoyl)-4-hydroxypyrimidine-2-carboxamido)propanoate]"
10,6.67 nM,"CCOC(=O)OC(C)OC(=O)CCNC(=O)c1ncc(C(=O)NC(c2ccccc2)c2ccccc2)c(O)n1 (stereo not drawn) [Ex. 9, 1-((ethoxycarbonyl)oxy)ethyl 3-(5-(benzhydrylcarbamoyl)-4-hydroxypyrimidine-2-carboxamido)propanoate]"
11,37.2 nM,"CC(C)OC(=O)OC(C)OC(=O)CCNC(=O)c1ncc(C(=O)NC(c2ccccc2)c2ccccc2)c(O)n1 (stereo not drawn) [Ex. 10, 1-((isopropoxycarbonyl)oxy)ethyl 3-(5-(benzhydrylcarbamoyl)-4-hydroxypyrimidine-2-carboxamido)propanoate]"
12,42.1 nM,"CC(OC(=O)CCNC(=O)c1ncc(C(=O)NC(c2ccccc2)c2ccccc2)c(O)n1)OC(=O)OC1CCCCC1 (stereo not drawn) [Ex. 11, 1-(((cyclohexyloxy)carbonyl)oxy)ethyl 3-(5-(benzhydrylcarbamoyl)-4-hydroxypyrimidine-2-carboxamido)propanoate]"
13,2.46 nM,"CCOC(=O)OCOC(=O)CCNC(=O)c1ncc(C(=O)NC(c2ccccc2)c2ccccc2)c(O)n1 [Ex. 12, ((ethoxycarbonyl)oxy)methyl 3-(5-(benzhydrylcarbamoyl)-4-hydroxypyrimidine-2-carboxamido)propanoate]"
14,159 nM,"CN(C)C(=O)COC(=O)CCNC(=O)c1ncc(C(=O)NC(c2ccccc2)c2ccccc2)c(O)n1 [Ex. 13, 2-(Dimethylamino)-2-oxoethyl 3-(5-(benzhydrylcarbamoyl)-4-hydroxypyrimidine-2-carboxamido)propanoate]"
15,11.2 nM,"O=C1CCN(C(=O)c2ncc(C(=O)NC(c3ccccc3)c3ccccc3)c(O)n2)CO1 [Ex. 14, N-Benzhydryl-4-hydroxy-2-(6-oxo-1,3-oxazinane-3-carbonyl)pyrimidine-5-carboxamide]"
16,11.2 nM,"O=C(CNC(=O)c1ncc(C(=O)NC(c2ccccc2)c2ccccc2)c(O)n1)Oc1ccc2c(c1)CCC2 [Ex. 15, 2,3-Dihydro-1H-inden-5-yl 2-(5-(benzhydrylcarbamoyl)-4-hydroxypyrimidine-2-carboxamido)acetate]"
17,105 nM,"CN(C)C(=O)COC(=O)CNC(=O)c1ncc(C(=O)NC(c2ccccc2)c2ccccc2)c(O)n1 [Ex. 16, 2-(dimethylamino)-2-oxoethyl 2-(5-(benzhydrylcarbamoyl)-4-hydroxypyrimidine-2-carboxamido)acetate]"
18,15.1 nM,"O=C1CN(C(=O)c2ncc(C(=O)NC(c3ccccc3)c3ccccc3)c(O)n2)CO1 [Ex. 17, N-Benzhydryl-4-hydroxy-2-(5-oxooxazolidine-3-carbonyl)pyrimidine-5-carboxamide]"
19,43.9 nM,"CC(C)OC(=O)OC(C)OC(=O)CNC(=O)c1ncc(C(=O)NC(c2ccccc2)c2ccccc2)c(O)n1 (stereo not drawn) [Ex. 18, 1-((isopropoxycarbonyl)oxy)ethyl 2-(5-(benzhydrylcarbamoyl)-4-hydroxypyrimidine-2-carboxamido)acetate]"
20,32.2 nM,"CCOC(=O)OC(C)OC(=O)CNC(=O)c1ncc(C(=O)NC(c2ccccc2)c2ccccc2)c(O)n1 (stereo not drawn) [Ex. 19, 1-((ethoxycarbonyl)oxy)ethyl 2-(5-(benzhydrylcarbamoyl)-4-hydroxypyrimidine-2-carboxamido)acetate]"
21,41 nM,"CC(C)OC(=O)OCOC(=O)CNC(=O)c1ncc(C(=O)NC(c2ccccc2)c2ccccc2)c(O)n1 [Ex. 20, ((Isopropoxycarbonyl)oxy)methyl 2-(5-(benzhydrylcarbamoyl)-4-hydroxypyrimidine-2-carboxamido)acetate]"
22,11.2 nM,"CC(OC(=O)[C@H](O)CNC(=O)c1ncc(C(=O)NC(c2ccccc2)c2ccccc2)c(O)n1)C(=O)OCc1ccccc1 (stereo partly drawn) [Ex. 23, (2R)-1-(Benzyloxy)-1-oxopropan-2-yl 3-(5-(benzhydrylcarbamoyl)-4-hydroxypyrimidine-2-carboxamido)-2-hydroxypropanoate]"
23,326 nM,"CCOC(=O)C(OC(=O)[C@H](O)CNC(=O)c1ncc(C(=O)NC(c2ccccc2)c2ccccc2)c(O)n1)c1ccccc1 (stereo partly drawn) [Ex. 24, (2R)-2-ethoxy-2-oxo-1-phenylethyl 3-(5-(benzhydrylcarbamoyl)-4-hydroxypyrimidine-2-carboxamido)-2-hydroxypropanoate]"
24,182 nM,"O=C(NC[C@@H](O)C(=O)OC1CCCCC1O)c1ncc(C(=O)NC(c2ccccc2)c2ccccc2)c(O)n1 (stereo partly drawn) [Ex. 25, (2R)-2-Hydroxycyclohexyl 3-(5-(benzhydrylcarbamoyl)-4-hydroxypyrimidine-2-carboxamido)-2-hydroxypropanoate]"
25,171 nM,"CC(C)OC(=O)COC(=O)[C@H]1C[C@H](NC(=O)c2ncc(C(=O)NC(c3ccccc3)c3ccccc3)c(O)n2)C1 [Ex. 29, (1R,3R)-2-isopropoxy-2-oxoethyl 3-(5-(benzhydrylcarbamoyl)-4-hydroxypyrimidine-2-carboxamido)cyclobutanecarboxylate]"
26,15.9 nM,"CC(C)OC(=O)CCNC(=O)c1ncc(C(=O)NC(c2ccccc2)c2ccccc2)c(O)n1 [Example 6, Isopropyl 3-(5-(benzhydrylcarbamoyl)-4-hydroxypyrimidine-2-carboxamido)propanoate]"
27,24.3 nM,O=C(CCNC(=O)c1ncc(C(=O)NC(c2ccccc2)c2ccccc2)c(O)n1)OCc1ccccc1 [Example 28]

row,Structure (SMILES),IC50
1,"CC(=O)OCOC(=O)CCNC(=O)c1ncc(C(=O)NC(c2ccccc2)c2ccccc2)c(O)n1 [Ex. 7, Acetoxymethyl 3-(5-(benzhydrylcarbamoyl)-4-hydroxypyrimidine-2-carboxamido)propanoate]",3.11 nM
2,"CC(C)C(=O)OCOC(=O)CNC(=O)c1ncc(C(=O)NC(c2ccccc2)c2ccccc2)c(O)n1 [Ex. 21, (2-(5-(benzhydrylcarbamoyl)-4-hydroxypyrimidine-2-carboxamido)acetoxy)methyl isobutyrate]",35 nM
3,CCOC(=O)OCOC(=O)CNC(=O)c1ncc(C(=O)NC(c2ccccc2)c2ccccc2)c(O)n1 [Ex. 22],14.7 nM
